These sequences were tested on proplastids of triticale microspores (assay: qRT-PCR of gfp mRNA, microspores transfected with pWCaadA16GFP). Conditions: gfp reporter construct.
Format: cell-based
Text: FIG. 18 is a plot showing the level of expression (fold increase, average of 4 replicates) of GFP in triticale microspores transfected with the pWCaadA16GFP plasmid in the presence of cTP1 (SEQ ID NO: 6), cTP2 (SEQ ID NO: 7), cTP3 (SEQ ID NO: 8), cTP4 (SEQ ID NO: 9) or cTP5 (SEQ ID NO: 10) compared to the level of expression (fold increase) of the internal control elongation factor 1a (EF1a), as measured by quantitative real time PCR of mRNA levels;
Wheat chloroplast aadA16GFP reporter plasmid (pWCaadA16GFP, FIG. 12) is a 4212 base pair wheat specific plastid transformation vector, which targets insertions into the tml-tmA inverted repeat regions of the Triticum aestivum plastid genome at nucleotides 92850-93727 and 93794-94671 (GenBank accession No. AB042240.3). A multiple cloning site is introduced following the tml target insertion sequence. The selection marker gene is an organelle codon specific aad-gfp fusion gene, which facilitates a dual selection method of spectinomycin resistance through an aadA derivative and visual detection by GFP fluorescence (GenBank accession No. ABX39486; Khan and Maliga, Nat. Biotechnol. (1999 September) 17(9): 910-5). The selection marker gene is driven by the Triticum aestivum plastid genome promoter (psbA) at nucleotides 1282-1153 (GenBank accession No. AB042240.3). The aad-gfp fusion gene is terminated with the rice psbA terminator sequence derived from chloroplast transformation vector pVSR326 nucleotides 4014-4387 (GenBank accession No. AF527485.1).
(§1) The dsDNA construct (pWMaadA16GFP for mitochondrial expression or pWCaadA16GFP for expression in chloroplasts) is combined with the mTP (for mitochondrial expression) or cTP (for expression in chloroplasts) in the amounts used in the protoplast transformation experiments described above in a final volume of 100 μl of NBP-99 solution. The mixture is incubated for 10 minutes at room temperature, then incubated with isolated triticale microspores (500 μl, 10^6 microspores/ml, prepared as described in Example 2) for 1 h in the dark at room temperature. NBP-99 solution (500 μl) is added and the mixture is incubated in the dark for 24 h. The cells are imaged using confocal microscopy, as described in Example 2, using MitoTracker® Orange staining to visualize mitochondria.
(§2) Microspores are disrupted using a cleaned ceramic bead and aggressive shaking as the tissue is thawing. RLT buffer/B-Me (450 μl) is added and the sample is vortexed. The sample is heated at 55° C. for 1 minute and vortexed again. RNA is extracted using an RNeasy™ Plant Mini Kit (Qiagen), incorporating on-column DNase I digestion into the protocol. The final elution volume is 40 μl. RNA is assessed using both agarose gel […] (to ensure RNA is intact) and spectrophotometry (for quantification).
(§3) cDNA is generated using a First Strand Synthesis kit (Invitrogen). RNA (1 μg) is added to each sample and the manufacturer's protocol for synthesis followed, with the exception that the volume of the reaction mixture is increased from 20 μl to 30 μl. A negRT sample containing all reagents but no RNA is included in the cDNA synthesis as a negative control.
Standard curves are generated for both elongation factor 1a (EF1a) (internal control) and green fluorescent protein (GFP) (test) genes. […]
(§4) Real time PCR reactions are performed using QuantiTect™ SYBR™ Green PCR Master Mix (Qiagen) in a 20 μl reaction volume. […]

Row | Sequence | GFP expression by proplastids confirmed by qRT-PCR
1 | MGGCVSTPKSCVGAKLR (listed as Arabidopsis thaliana) [cTP1] | GFP is expressed
2 | MAALIPAIASLPRAQVEKPHPMPVSTRPGLVS (listed as Triticum aestivum) [cTP4] | GFP is expressed
3 | MQTLTASSSVSSIQRHRPHPAGRRSSSVTFS (listed as Triticum aestivum) [cTP2] | GFP is expressed
4 | MSSPPPLFTSCLPASSPSIRRDSTSGSVTSPLR (listed as Arabidopsis thaliana) [cTP5] | GFP is expressed

What follows are sequences tested on mitochondria of triticale microspores (assay: qRT-PCR of gfp mRNA, microspores transfected with pWMaadA16GFP). Conditions: gfp reporter construct.
Format: cell-based
Text: FIG. 17 is a plot showing the level of expression (fold increase, average of 4 replicates) of GFP in triticale microspores transfected with the pWMaadA16GFP plasmid in the presence of mTP1 (SEQ ID NO: 1), mTP2 (SEQ ID NO: 2), mTP3 (SEQ ID NO: 3), mTP4 (SEQ ID NO: 4) or mTP5 (SEQ ID NO: 5) compared to the level of expression (fold increase) of the internal control elongation factor 1a (EF1a), as measured by quantitative real time PCR of mRNA levels;
Wheat mitochondrial aadA16GFP reporter plasmid (pWMaadA16GFP, FIG. 11) is a 4587 base pair wheat specific mitochondrial transformation vector, which targets insertions into the fourth repeat region between the trnfM and rm18 gene cluster which is repeated three times in the Triticum aestivum mitochondrial genome. The insertion site is in the Triticum aestivum mitochondrial genome at nucleotides 300805-300878 and 300880-302834 (GenBank accession No. AP008982.1). A multiple cloning site is introduced following the tmfM target insertion sequence. The selection marker gene is an organelle codon specific aad-gfp fusion gene, which facilitates a dual selection method of spectinomycin resistance through an aadA derivative and visual detection by GFP fluorescence (GenBank accession No. ABX39486; Khan and Maliga, Nat. Biotechnol. (1999 September) 17(9): 910-5). The selection marker gene is driven by the Triticum aestivum mitochondrial atpA gene promoter (GenBank accession No. X54387.1). The aad-gfp fusion gene is terminated with the TpsbA terminator sequence derived from the Triticum aestivum mitochondrial genome at nucleotides 62871-62565 (GenBank accession No. AP008982.1).
as §1, §2
as §3, with “control. […]” for “control.”
as §4

Row | Sequence | GFP expression by mitochondria confirmed by qRT-PCR
5 | MWWRRSRTNSLRYT (listed as Arabidopsis thaliana) [mTP4] | GFP is expressed
6 | MLFRLRRSVRLRGLLA (listed as Arabidopsis thaliana) [mTP5] | GFP is expressed
7 | MAAWMRSLFSPLKKLWIRMH (Zea mays) [mTP2] | GFP is expressed
8 | MFSYLPRYPLRAASARALVRATRPSYRSALLRYQ (listed as Triticum aestivum) [mTP1] | GFP is expressed
9 | MKLLWRLILSRKW (listed as Arabidopsis thaliana) [mTP3] | GFP is expressed

— US20140196172A1, “Organelle Targeting Nanocarriers” (Her Majesty the Queen in Right of Canada, as Repre sented …, priority 2011, published 2014)
